According to article PMC2248166, “Quantitative peptide binding motifs for 19 human and mouse MHC class I molecules derived using positional scanning combinatorial peptide libraries” (Immunome Research, 2008):
Where a SMILES comes first, the peptide text is derived from it.

What was measured:
Assay in all cases: biochemical
Type in all cases: binding
HLA B*0801 = HLA B*0801 (Homo sapiens, UniProt P01889, A93T/A95T/D138N/E176V/E187T/K202T/Q94N/R180D/S35A/V36M/Y33D/Y91F)
HLA B*1503 = HLA B*1503 (Homo sapiens, UniProt P01889, A329T/A93T/A95T/C349S/D201E/D98Y/E187L/E204Q/K202T/N87E/Q94N/R155S/R180L/S121R/S35A/V306I/V36M/Y140S/Y91S)
HLA B*1501 = HLA B*1501 (Homo sapiens, UniProt P01889, A329T/A93T/A95T/C349S/D201E/D98Y/E187L/E204Q/E69M/E70A/K202T/N87E/Q94N/R155S/R180W/S121R/S35A/S48A/V306I/V36M/Y140S/Y91S)
HLA A*3001 = HLA A*3001 (Homo sapiens, UniProt P04439, D140H/D185E/E176W/F33S/G80R/H175R/K168Q/R138E/R41S)
HLA A*3001, sequence (P04439 25-365 limits assumed, stated change not applied): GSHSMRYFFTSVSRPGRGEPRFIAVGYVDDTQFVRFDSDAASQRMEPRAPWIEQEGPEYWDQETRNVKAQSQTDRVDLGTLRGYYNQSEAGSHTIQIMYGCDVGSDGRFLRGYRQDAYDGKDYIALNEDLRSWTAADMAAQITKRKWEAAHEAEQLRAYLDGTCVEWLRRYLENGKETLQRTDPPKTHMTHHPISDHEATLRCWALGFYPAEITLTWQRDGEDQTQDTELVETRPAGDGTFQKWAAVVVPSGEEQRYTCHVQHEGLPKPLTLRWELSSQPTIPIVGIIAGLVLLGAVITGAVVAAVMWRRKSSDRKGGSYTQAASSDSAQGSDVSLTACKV

| SMILES | IC50 (HLA B*0801) [nM] | IC50 (HLA B*1503) [nM] | IC50 (HLA B*1501) [nM] | IC50 (HLA A*3001) [nM] |
| --- | --- | --- | --- | --- |
| CC[C@H](C)[C@H](NC(=O)[C@H](Cc1ccccc1)NC(=O)[C@H](CCCNC(=N)N)NC(=O)[C@H](CCC(=O)O)NC(=O)[C@@H](NC(=O)[C@H](CCSC)NC(=O)[C@@H](N)Cc1ccc(O)cc1)[C@@H](C)CC)C(=O)N[C@@H](CO)C(=O)N[C@@H](Cc1ccccc1)C(=O)O [3102.1085] (H-YMIERFISF-OH) | 0.35 | 0.046 | 0.11 |  |
| CC(C)[C@H](NC(=O)[C@H](Cc1ccccc1)NC(=O)[C@H](CC(=O)O)NC(=O)[C@H](CC(N)=O)NC(=O)[C@H](CCCCN)NC(=O)[C@@H]1CCCN1C(=O)[C@@H](N)Cc1ccccc1)C(=O)N[C@@H](CO)C(=O)N[C@@H](Cc1ccccc1)C(=O)O [3102.0637] (H-FPKNDFVSF-OH) | 16 | 4.2 | 10 |  |
| CC[C@H](C)[C@H](NC(=O)[C@H](CCCNC(=N)N)NC(=O)[C@H](Cc1c[nH]cn1)NC(=O)[C@H](CS)NC(=O)[C@@H](NC(=O)[C@@H](N)CCSC)C(C)C)C(=O)N[C@@H](CC(C)C)C(=O)N[C@H](C(=O)N[C@@H](Cc1ccc(O)cc1)C(=O)O)[C@@H](C)O [3102.0849] (H-MVCHRILTY-OH) | 220 | 28 | 70 |  |
| CC[C@H](C)[C@H](NC(=O)[C@@H](NC(=O)[C@H](CO)NC(=O)[C@H](CO)NC(=O)[C@H](CO)NC(=O)[C@H](CCCCN)NC(=O)[C@H](C)NC(=O)[C@@H](NC(=O)[C@@H](N)CC(C)C)[C@@H](C)CC)C(C)C)C(=O)O [3102.1021] (H-LIAKSSSVI-OH) | 13 |  | 23 | 11 |
| CC[C@H](C)[C@H](NC(=O)[C@H](C)N)C(=O)N[C@@H](CC(N)=O)C(=O)N[C@@H](CC(N)=O)C(=O)N[C@@H](CCCNC(=N)N)C(=O)N[C@H](C(=O)N[C@@H](CS)C(=O)N[C@H](C(=O)N[C@@H](CCSC)C(=O)O)C(C)C)[C@@H](C)CC [3102.0865] (H-AINNRICVM-OH) | 424 |  | 51 |  |
| CC[C@H](C)[C@H](NC(=O)[C@H](CO)NC(=O)[C@H](CCCNC(=N)N)NC(=O)[C@H](CO)NC(=O)[C@H](CCSC)NC(=O)[C@H](CO)NC(=O)[C@H](CCCNC(=N)N)NC(=O)[C@@H](NC(=O)[C@@H](N)CO)[C@@H](C)CC)C(=O)O [3102.0527] (H-SIRSMSRSI-OH) | 77 |  | 363 |  |
| CC[C@H](C)[C@H](NC(=O)[C@@H](N)CCCNC(=N)N)C(=O)N[C@@H](CCCNC(=N)N)C(=O)N[C@@H](CCCNC(=N)N)C(=O)N[C@@H](Cc1ccccc1)C(=O)N[C@@H](CCCNC(=N)N)C(=O)N[C@@H](CCCNC(=N)N)C(=O)N1CCC[C@H]1C(=O)N[C@@H](CCSC)C(=O)O [3102.0681] (H-RIRRFRRPM-OH) | 8.9 | 30 | 36 | 4.4 |
| CC[C@H](C)[C@H](NC(=O)[C@@H](N)CC(C)C)C(=O)N[C@@H](CCCNC(=N)N)C(=O)N[C@@H](CC(N)=O)C(=O)N[C@@H](CCCCN)C(=O)N[C@@H](CCCNC(=N)N)C(=O)N[C@@H](CC(C)C)C(=O)N[C@@H](CO)C(=O)N[C@@H](CC(C)C)C(=O)O [3102.0638] (H-LIRNKRLSL-OH) | 0.78 |  | 455 |  |
| CC[C@H](C)[C@H](NC(=O)[C@@H](NC(=O)[C@H](CC(C)C)NC(=O)CNC(=O)[C@H](C)NC(=O)[C@H](Cc1ccc(O)cc1)NC(=O)[C@H](CCCCN)NC(=O)[C@H](CC(C)C)NC(=O)[C@@H](N)CC(C)C)[C@@H](C)O)C(=O)O [3102.1023] (H-LLKYAGLTI-OH) | 105 |  | 4.5 |  |
| CC(C)C[C@H](NC(=O)[C@H](CCC(=O)O)NC(=O)[C@H](CC(N)=O)NC(=O)[C@H](CCCNC(=N)N)NC(=O)[C@H](CC(=O)O)NC(=O)[C@H](CCCCN)NC(=O)[C@H](CC(C)C)NC(=O)[C@@H](N)CC(C)C)C(=O)N[C@@H](Cc1ccccc1)C(=O)O [3102.0842] (H-LLKDRNELF-OH) | 41 | 16 | 1.8 |  |
| CSCC[C@H](NC(=O)[C@@H](N)CO)C(=O)N[C@@H](CCCCN)C(=O)N[C@H](C(=O)N[C@H](C(=O)N[C@@H](Cc1ccccc1)C(=O)N[C@@H](CCC(N)=O)C(=O)N[C@H](C(=O)N[C@@H](Cc1ccccc1)C(=O)O)C(C)C)C(C)C)[C@@H](C)O [3102.1083] (H-SMKTVFQVF-OH) | 179 | 3.8 | 1.6 |  |
| CC[C@H](C)[C@H](NC(=O)[C@H](CO)NC(=O)[C@@H](N)CCCNC(=N)N)C(=O)N[C@@H](CCCNC(=N)N)C(=O)N[C@@H](CCCCN)C(=O)N[C@@H](Cc1ccccc1)C(=O)N[C@@H](CC(N)=O)C(=O)N[C@H](C(=O)N[C@@H](CCSC)C(=O)O)[C@@H](C)O [3102.1003] (H-RSIRKFNTM-OH) | 17 |  | 4.4 |  |
| CSCC[C@H](NC(=O)[C@@H](N)CC(C)C)C(=O)N[C@@H](Cc1ccccc1)C(=O)N[C@@H](CCCCN)C(=O)N[C@@H](Cc1c[nH]cn1)C(=O)N[C@@H](CC(C)C)C(=O)N[C@@H](CC(C)C)C(=O)N[C@@H](Cc1c[nH]cn1)C(=O)N1CCC[C@H]1C(=O)O [3102.0908] (H-LMFKHLLHP-OH) | 1 | 26 | 103 |  |
| CC[C@H](C)[C@H](NC(=O)[C@H](CC(C)C)NC(=O)[C@@H](N)CC(N)=O)C(=O)N[C@H](C(=O)N[C@@H](CC(C)C)C(=O)N[C@@H](C)C(=O)N[C@H](C(=O)N[C@@H](CO)C(=O)N[C@@H](Cc1ccccc1)C(=O)O)C(C)C)[C@@H](C)O [3102.0798] (H-NLITLAVSF-OH) | 328 | 15 | 81 |  |
| CC[C@H](C)[C@H](NC(=O)[C@H](CS)NC(=O)[C@H](CS)NC(=O)[C@H](Cc1c[nH]cn1)NC(=O)[C@H](CCCNC(=N)N)NC(=O)[C@H](CO)NC(=O)[C@@H](NC(=O)[C@H](CCSC)NC(=O)[C@@H](N)CO)[C@@H](C)CC)C(=O)O [3102.0973] (H-SMISRHCCI-OH) | 1.3 |  | 81 |  |
| CC[C@H](C)[C@H](NC(=O)[C@@H](N)Cc1ccccc1)C(=O)N[C@@H](CCCNC(=N)N)C(=O)N[C@@H](Cc1ccc(O)cc1)C(=O)N[C@@H](CCCNC(=N)N)C(=O)N[C@@H](CCSC)C(=O)N[C@@H](Cc1c[nH]cn1)C(=O)N1CCC[C@H]1C(=O)N[C@@H](CCSC)C(=O)O [3102.0768] (H-FIRYRMHPM-OH) | 0.21 | 22 | 1.2 |  |
| CSCC[C@H](NC(=O)[C@@H](NC(=O)[C@H](CO)NC(=O)CNC(=O)[C@H](CC(=O)O)NC(=O)[C@@H](NC(=O)[C@@H](NC(=O)[C@H](CCSC)NC(=O)[C@@H](N)Cc1ccc(O)cc1)C(C)C)C(C)C)C(C)C)C(=O)O [3102.1153] (H-YMVVDGSVM-OH) | 390 | 1 | 2.5 |  |
| CC[C@H](C)[C@H](NC(=O)[C@H](CCCCN)NC(=O)[C@H](CC(N)=O)NC(=O)[C@H](CCCCN)NC(=O)[C@@H](NC(=O)[C@@H](N)Cc1ccccc1)[C@@H](C)CC)C(=O)N[C@@H](Cc1c[nH]cn1)C(=O)N[C@@H](CC(C)C)C(=O)N[C@@H](CC(C)C)C(=O)O [3102.0551] (H-FIKNKIHLL-OH) | 0.82 |  | 98 |  |
